According to patent publication US9481670B2, “Triazine compounds” (Sphaera Pharma PTE. Ltd., priority 2011, dated 2016):
pIC50: −log10 of the molar value.

target: T1, PI3K alpha (Homo sapiens, UniProt P42336); assay: P110 Alpha TR-FRET Assay (PI3K alpha kinase assay, HTRF Transcreener ADP Assay); format: biochemical; details: PI3K (WT)
T1 construct: purchased Millipore Upstate
Outline: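 Enzyme (50 ng) and compound were preincubated 20 min in HEPES pH 7.5 buffer containing MgCl2, DTT and vanadate before 10 μM ATP plus 5 μM PIP2 substrate was added for 20 min. ADP produced was quantified by TR-FRET (ADP-d2, anti-ADP cryptate, 1 h).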

T1 sequence (P42336 whole entry): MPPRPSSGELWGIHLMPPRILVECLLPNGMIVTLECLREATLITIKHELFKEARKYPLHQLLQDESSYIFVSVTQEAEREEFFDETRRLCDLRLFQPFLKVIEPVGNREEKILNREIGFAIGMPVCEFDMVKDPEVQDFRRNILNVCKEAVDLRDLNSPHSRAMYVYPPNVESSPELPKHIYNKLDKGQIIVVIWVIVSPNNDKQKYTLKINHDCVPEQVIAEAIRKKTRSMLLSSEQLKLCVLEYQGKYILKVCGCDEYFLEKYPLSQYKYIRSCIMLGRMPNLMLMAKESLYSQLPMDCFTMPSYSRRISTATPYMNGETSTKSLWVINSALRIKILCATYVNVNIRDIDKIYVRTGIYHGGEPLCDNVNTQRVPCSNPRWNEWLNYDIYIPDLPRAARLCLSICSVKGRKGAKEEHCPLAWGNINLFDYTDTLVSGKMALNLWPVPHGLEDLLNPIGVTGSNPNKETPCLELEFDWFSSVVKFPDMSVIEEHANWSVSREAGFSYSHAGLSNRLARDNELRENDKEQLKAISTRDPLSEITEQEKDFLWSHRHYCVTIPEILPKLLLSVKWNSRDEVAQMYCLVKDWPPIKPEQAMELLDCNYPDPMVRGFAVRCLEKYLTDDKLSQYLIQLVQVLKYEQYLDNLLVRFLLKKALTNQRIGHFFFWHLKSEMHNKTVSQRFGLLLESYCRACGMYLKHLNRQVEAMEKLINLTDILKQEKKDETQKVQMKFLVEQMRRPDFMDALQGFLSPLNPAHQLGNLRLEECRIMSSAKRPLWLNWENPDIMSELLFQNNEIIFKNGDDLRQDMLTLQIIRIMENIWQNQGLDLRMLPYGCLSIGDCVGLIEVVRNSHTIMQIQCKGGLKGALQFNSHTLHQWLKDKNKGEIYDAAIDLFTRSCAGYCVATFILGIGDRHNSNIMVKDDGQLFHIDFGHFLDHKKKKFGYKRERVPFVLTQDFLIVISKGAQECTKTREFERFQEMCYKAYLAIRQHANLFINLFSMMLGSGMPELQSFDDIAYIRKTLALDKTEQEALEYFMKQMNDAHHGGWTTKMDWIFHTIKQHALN
T1 sequence (P27986 whole entry partner): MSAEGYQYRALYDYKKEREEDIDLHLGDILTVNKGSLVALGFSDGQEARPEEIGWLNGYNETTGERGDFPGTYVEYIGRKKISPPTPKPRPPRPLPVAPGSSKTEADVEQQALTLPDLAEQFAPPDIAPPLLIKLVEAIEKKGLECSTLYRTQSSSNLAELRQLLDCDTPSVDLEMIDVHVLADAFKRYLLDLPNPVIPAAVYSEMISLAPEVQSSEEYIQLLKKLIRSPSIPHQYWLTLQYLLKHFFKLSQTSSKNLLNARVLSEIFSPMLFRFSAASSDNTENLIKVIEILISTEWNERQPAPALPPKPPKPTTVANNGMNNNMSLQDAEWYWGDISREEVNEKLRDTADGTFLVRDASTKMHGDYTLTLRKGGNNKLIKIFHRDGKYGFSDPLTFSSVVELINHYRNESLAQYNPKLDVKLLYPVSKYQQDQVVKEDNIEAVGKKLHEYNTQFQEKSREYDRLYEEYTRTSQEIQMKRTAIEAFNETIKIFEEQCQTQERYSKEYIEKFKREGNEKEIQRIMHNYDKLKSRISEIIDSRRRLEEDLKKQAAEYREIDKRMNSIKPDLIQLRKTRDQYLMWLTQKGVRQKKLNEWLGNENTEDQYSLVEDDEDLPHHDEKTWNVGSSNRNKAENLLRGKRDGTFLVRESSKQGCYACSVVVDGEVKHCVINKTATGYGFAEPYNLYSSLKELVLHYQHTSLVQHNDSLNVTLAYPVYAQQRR

| pIC50 | SMILES |
| --- | --- |
| > 5.30 | c1ccc(CN2CCC(Oc3nc(-c4cccc5[nH]ncc45)nc(N4CCOCC4)n3)CC2)cc1 [Compound 1115, 4-(4-((1-benzylpiperidin-4-yl)oxy)-6-(1H-indazol-4-yl)-1,3,5-triazin-2-yl)morpholine] |
| > 5.30 | CN(C)C(=O)N1CCN(Cc2nc(-c3cccc4[nH]ncc34)nc(N3CCOCC3)n2)CC1 [Compound 1180, 4-((4-(1H-1-indazol-4-yl)-6-morpholino-1,3,5-triazin-2-yl)methyl)-N,N-dimethylpiperazine-1-carboxamide] |
| > 5.30 | CN(C)C(=O)C(=O)N[C@H]1CC[C@H](Oc2nc(-c3cccc4[nH]ncc34)nc(N3CCOCC3)n2)CC1 [Compound 1125, N,N-dimethyl-N′-[(1r,4r)-4-9-{[4-1-(1H-indazol-4-yl)-6-5-(morpholin-4-yl)-1,3,5-triazin-2-yl]oxy}cyclohexyl]ethanediamide] |
| > 5.30 | CNC(=O)c1ccc(C)c(Nc2nc(-c3cccc4[nH]ncc34)nc(N3CCOCC3)n2)c1 [Compound 1177, 3-((4-(1H-indazol-4-yl)-6-morpholino-1,3,5-triazin-2-yl)amino)-N,4-dimethylbenzamide] |
| > 5.30 | Nc1nc(-c2cccc(O)c2)nc(N2CCOCC2)n1 [Compound 1139, 3-8-[4-3-amino-6-5-(morpholin-4-yl)-1,3,5-triazin-2-yl]phenol] |
| < 5.30 | CN(C)C(=O)CNc1nc(-c2cccc(C#N)c2)nc(N2CCOCC2)n1 [Compound 1141, 2-((4-(3-cyanophenyl)-6-morpholino-1,3,5-triazin-2-yl)amino)-N,N-dimethylacetamide] |
| > 5.30 | Oc1nc(-c2cccc3[nH]ncc23)nc(N2CCOCC2)n1 [Compound 1212, 4-1-(1H-indazol-4-yl)-6-5-(morpholin-4-yl)-1,3,5-triazin-2-ol] |
| > 5.30 | CS(=O)(=O)N1CCN(C(=O)CNc2nc(-c3cccc(O)c3)nc(N3CCOCC3)n2)CC1 [Compound 1089, 2-((4-(3-hydroxyphenyl)-6-morpholino-1,3,5-triazin-2-yl)amino)-1-(4-(methylsulfonyl)piperazin-1-yl)ethanone] |
| > 5.30 | CN(C)C(=O)c1cccc(Oc2nc(-c3cccc4[nH]ncc34)nc(N3CCOCC3)n2)c1 [Compound 1088, 3-22-{[4-1-(1H-indazol-4-yl)-6-5-(morpholin-4-yl)-1,3,5-triazin-2-yl]oxy}-N,N-dimethylbenzamide] |
| > 5.30 | CN(C)Cc1ccc(Oc2nc(-c3cccc4[nH]ncc34)nc(N3CCOCC3)n2)cc1 [Compound 1119, 1-(4-((4-(1H-indazol-4-yl)-6-morpholino-1,3,5-triazin-2-yl)oxy)phenyl)-N,N-dimethylmethanamine] |
| < 5.30 | COc1cccc(-c2nc(NCC(=O)N3CCN(S(C)(=O)=O)CC3)nc(N3CCOCC3)n2)c1 [Compound 1079, 2-((4-(3-methoxyphenyl)-6-morpholino-1,3,5-triazin-2-yl)amino)-1-(4-(methylsulfonyl)piperazin-1-yl)ethanone] |
| > 5.30 | CNC(=O)C(=O)N[C@H]1CC[C@H](Oc2nc(-c3cccc4[nH]ncc34)nc(N3CCOCC3)n2)CC1 [Compound 1124, N-methyl-N′-[(1r,4r)-4-9-{[4-1-(1H-indazol-4-yl)-6-5-(morpholin-4-yl)-1,3,5-triazin-2-yl]oxy}cyclohexyl]ethanediamide] |
| > 5.30 | CCOc1ccc(NC(=O)C2CCN(c3nc(-c4cccc5[nH]ncc45)nc(N4CCOCC4)n3)C2)cc1 (centres unmarked) [Compound 1174, N-(4-23-ethoxyphenyl)-1-12-[4-1-(1H-indazol-4-yl)-6-5-(morpholin-4-yl)-1,3,5-triazin-2-yl]pyrrolidine-3-carboxamide] |
| > 5.30 | CN(C)C(=O)[C@H]1C[C@H](Oc2nc(-c3cccc4[nH]ncc34)nc(N3CCOCC3)n2)CN1C [Compound 1099, (2R,4S)-4-14-{[4-1-(1H-indazol-4-yl)-6-5-(morpholin-4-yl)-1,3,5-triazin-2-yl]oxy}-N,N,1-trimethylpyrrolidine-2-carboxamide] |
